From patent US20070128217A1 (priority 2003, published 2007)

Legend:
[1] = test system: control sera (pooled serum of ten healthy LUMC hospital workers; commercial negative donor pooled serum from the Dutch bloodbank); assay type: binding, human; parameters: Binding of Control serum LUMC to linear peptides / Binding of Control serum Blood-bank to linear peptides / Binding of Control serum LUMC to looped peptides / Binding of Control Serum Blood-Bank to Looped peptides / Binding of Control serum LUMC to linear peptides of the protein M of SARS-CoV Urbani / Binding of Control serum Blood-bank to linear peptides of the protein M of SARS-CoV Urbani / Binding of Control serum LUMC to looped peptides of the protein M of SARS-CoV Urbani / Binding of Control Serum Blood-Bank to Looped peptides of the protein M of SARS-CoV Urbani: unit not given here
[2] = test system: recombinant human anti-SARS-CoV antibody 03-018; assay type: binding; parameters: Binding of antibody 03-018 to linear peptides of the N protein of SARS-CoV Urbani / Binding of antibody 03-018 to looped/cyclic peptides of the N protein of SARS-CoV Urbani: unit not given here
[3] = test system: antibodies in sera from SARS patients (sera 1a, 1b, 2, 6, 37, 62, London, SARS-yellow, SARS-green); assay type: binding, human; parameters: Binding of serum 6 to linear peptides of protein X1 of SARS-CoV Urbani / Binding of serum 37 to linear peptides of protein X1 of SARS-CoV Urbani / Binding of serum 6 to looped/cyclic peptide (PEPSCAN-ELISA) / Binding of serum 37 to looped/cyclic peptide (PEPSCAN-ELISA) / Binding of serum 37 to looped/cyclic peptides of protein X1 of SARS-CoV Urbani / Binding of serum 6 to linear peptides of protein X2 / Binding of serum 37 to linear peptides of protein X2 / Binding of serum 37 to looped/cyclic peptides of protein X2 of SARS-CoV Urbani / Binding of serum 6 to linear peptides of protein M of SARS-CoV Urbani / Binding of serum 37 to linear peptides of protein M of SARS-CoV Urbani / Binding of serum 6 to looped/cyclic peptides of protein M of SARS-CoV Urbani / Binding of serum 37 to looped/cyclic peptides of protein M of SARS-CoV Urbani / Binding of serum 6 to linear peptides of protein X3 of SARS-CoV Urbani / Binding of serum 37 to linear peptides of protein X3 of SARS-CoV Urbani / Binding of serum 37 to looped/cyclic peptides of protein X3 of SARS-CoV Urbani / Binding of serum 6 to linear peptides of protein X4 of SARS-CoV Urbani / Binding of serum 37 to linear peptides of protein X4 of SARS-CoV Urbani / Binding of serum 37 to looped/cyclic peptides of protein X4 of SARS-CoV Urbani / Binding of serum 6 to linear peptides of protein X5 of SARS-CoV Urbani / Binding of serum 37 to linear peptides of protein X5 of SARS-CoV Urbani / Binding of serum 37 to looped/cyclic peptides of protein X5 of SARS-CoV Urbani / Binding of serum 6 to linear peptides of protein N of SARS-CoV Urbani / Binding of serum 37 to linear peptides of protein N of SARS-CoV Urbani / Binding of serum 6 to linear peptide (PEPSCAN-ELISA) / Binding of serum 1a to looped/cyclic peptides of protein N of SARS-CoV Urbani / Binding of serum 1b to looped/cyclic peptides of protein N of SARS-CoV Urbani / Binding of serum 2 to looped/cyclic peptides of protein N of SARS-CoV Urbani / Binding of serum 6 to looped/cyclic peptides of protein N of SARS-CoV Urbani / Binding of serum 37 to looped/cyclic peptides of protein N of SARS-CoV Urbani / Binding of serum 62 to looped/cyclic peptides of protein N of SARS-CoV Urbani / Binding of serum London to looped/cyclic peptides of protein N of SARS-CoV Urbani / Binding of serum SARS-green to looped/cyclic peptides of protein N of SARS-CoV Urbani: unit not given here
[4] = test system: rabbit serum obtained by immunizing a rabbit with the SARS-CoV strain Frankfurt 1; assay type: binding; parameters: Binding of a rabbit serum to linear peptides / Binding of a rabbit serum to looped peptides / Rabbit serum linear peptides / Rabbit serum looped peptides / Binding of a rabbit serum to linear peptides of protein N of SARS-CoV Urbani (Rabbit serum linear peptides) / Binding of a rabbit serum to looped/cyclic peptides of protein N of SARS-CoV Urbani (Rabbit serum looped peptides): unit not given here

Row | Sequence | Control Serum Blood-Bank Looped peptides [1] | Control serum Blood-bank linear peptides [1] | Control serum LUMC linear peptides [1] | Control serum LUMC looped peptides [1] | Binding of antibody 03-018 to linear peptides of the N protein of SARS-CoV Urbani [2] | Binding of antibody 03-018 to looped/cyclic peptides of the N protein of SARS-CoV Urbani [2] | Binding of serum 1a to linear peptides of protein N of SARS-CoV Urbani [3] | Binding of serum 1a to looped/cyclic peptides of protein N of SARS-CoV Urbani [3] | Binding of serum 1b to linear peptides of protein N of SARS-CoV Urbani [3] | Binding of serum 1b to looped/cyclic peptides of protein N of SARS-CoV Urbani [3] | Binding of serum 2 to linear peptides of protein N of SARS-CoV Urbani [3] | Binding of serum 2 to looped/cyclic peptides of protein N of SARS-CoV Urbani [3] | Binding of serum 6 to looped/cyclic peptides of protein N of SARS-CoV Urbani [3] | Binding of serum 37 to looped/cyclic peptides of protein N of SARS-CoV Urbani [3] | Binding of serum 62 to looped/cyclic peptides of protein N of SARS-CoV Urbani [3] | Binding of serum London to looped/cyclic peptides of protein N of SARS-CoV Urbani [3] | Binding of serum SARS-green to looped/cyclic peptides of protein N of SARS-CoV Urbani [3] | Binding of serum SARS-yellow to looped/cyclic peptides of protein N of SARS-CoV Urbani [3] | Binding of a rabbit serum to linear peptides of protein N of SARS-CoV Urbani (Rabbit serum linear peptides) [4] | Binding of a rabbit serum to looped/cyclic peptides of protein N of SARS-CoV Urbani (Rabbit serum looped peptides) [4] | further results
1 | FFGMSRIGMEVTPSG | 0.5 | 0.8 | 0.7 | 0.5 | 0.1 | 0.2 | 0.3 | 0.3 | 0.1 | 0.2 | 0.2 | 0.4 | 0.1 | 0.5 | 0.4 | 0.3 | 0.1 | 0.4 | 0.2 | 0.4 | Binding of serum 6 to linear peptides of protein N of SARS-CoV Urbani [3]: 0.2; Binding of serum 37 to linear peptides of protein N of SARS-CoV Urbani [3]: 0.7; Binding of serum 62 to linear peptides of protein N of SARS-CoV Urbani [3]: 0.7; Binding of serum London to linear peptides of protein N of SARS-CoV Urbani [3]: 0.6; Binding of serum SARS-green to linear peptides of protein N of SARS-CoV Urbani [3]: 0.3; Binding of serum SARS-yellow to linear peptides of protein N of SARS-CoV Urbani [3]: 0.8
2 | FGDQDLIRQGTDYKH |  |  |  |  | 0.1 | 0.2 |  | 0.4 |  | 0.3 |  | 0.4 | 0.2 | 0.7 | 0.6 | 0.4 | 0.7 | 0.5 | 0.1 | 0.5 | Binding of Control Serum Blood-Bank to Looped peptides [1]: 0.6; Binding of Control serum Blood-bank to linear peptides [1]: 0.8; Binding of Control serum LUMC to linear peptides [1]: 0.7; Binding of Control serum LUMC to looped peptides [1]: 0.7; Binding of serum 1a to linear peptide (PEPSCAN-ELISA) [3]: 0.3; Binding of serum 1b to linear peptide (PEPSCAN-ELISA) [3]: 0.2; Binding of serum 2 to linear peptide (PEPSCAN-ELISA) [3]: 0.2; Binding of serum 6 to linear peptide (PEPSCAN-ELISA) [3]: 0.2; Binding of serum 37 to linear peptide (PEPSCAN-ELISA) [3]: 0.7; Binding of serum 62 to linear peptide (PEPSCAN-ELISA) [3]: 0.7; Binding of serum London to linear peptide (PEPSCAN-ELISA) [3]: 0.6; Binding of serum SARS-green to linear peptide (PEPSCAN-ELISA) [3]: 0.7; Binding of serum SARS-yellow to linear peptide (PEPSCAN-ELISA) [3]: 0.6
3 | FGMSRIGMEVTPSGT | 0.5 | 0.8 | 0.7 | 0.5 | 0.1 | 0.2 | 0.3 | 0.3 | 0.1 | 0.2 | 0.2 | 0.4 | 0.2 | 0.4 | 0.3 | 0.3 | 0.2 | 0.3 | 0.2 | 0.3 | Binding of serum 6 to linear peptides of protein N of SARS-CoV Urbani [3]: 0.2; Binding of serum 37 to linear peptides of protein N of SARS-CoV Urbani [3]: 0.8; Binding of serum 62 to linear peptides of protein N of SARS-CoV Urbani [3]: 0.7; Binding of serum London to linear peptides of protein N of SARS-CoV Urbani [3]: 0.6; Binding of serum SARS-green to linear peptides of protein N of SARS-CoV Urbani [3]: 0.3; Binding of serum SARS-yellow to linear peptides of protein N of SARS-CoV Urbani [3]: 0.7
